Test results: ChEMBL document CHEMBL1134134, “Novel tricyclic benzothiazolo[2,3-c]thiadiazine antagonists of the platelet ADP receptor (P2Y(12))” (Bioorg Med Chem Lett, 2001)

Experiments:
P2Y purinoceptor 12 [1] = target: T1, P2Y purinoceptor 12 (Homo sapiens, UniProt Q9H244); test: Ability to displace [3H]2-MeS-ADP from human Purinergic receptor P2Y12; format: tissue-based
Homo sapiens = species: Homo sapiens; test: Ability to inhibit platelet aggregation; format: functional, organism-based
P2Y purinoceptor 12 [2] = target: T1, P2Y purinoceptor 12; test: Compound was evaluated for its ability to inhibit human Purinergic receptor P2Y12 expressed in Xenopus oocyte

T1 sequence (Q9H244 whole entry): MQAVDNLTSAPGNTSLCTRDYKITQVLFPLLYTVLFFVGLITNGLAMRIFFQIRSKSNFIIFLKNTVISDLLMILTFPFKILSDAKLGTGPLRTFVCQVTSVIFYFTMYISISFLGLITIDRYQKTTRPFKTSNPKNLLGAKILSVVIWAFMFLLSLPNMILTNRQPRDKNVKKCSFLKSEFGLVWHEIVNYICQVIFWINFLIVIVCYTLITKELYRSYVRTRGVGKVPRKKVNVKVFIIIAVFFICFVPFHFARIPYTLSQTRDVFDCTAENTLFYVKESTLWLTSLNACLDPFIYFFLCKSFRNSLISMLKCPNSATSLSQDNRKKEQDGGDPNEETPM

For `O=C1/C(=C(\O)CS(=O)(=O)Nc2nc3ccc(C4CCCCC4)cc3s2)S(=O)(=O)N=C2Sc3cc(C4CCCCC4)ccc3N12`, the IC50 (P2Y purinoceptor 12 [1]) was over 120 µM and the IC50 (Homo sapiens) was over 120 µM.

Compound `O=C1/C(=C(\O)CS(=O)(=O)Nc2nc3ccc(-c4ccccc4)cc3s2)S(=O)(=O)N=C2Sc3cc(-c4ccccc4)ccc3N12` has an IC50 (P2Y purinoceptor 12 [1]) of over 50 µM and an IC50 (Homo sapiens) of over 24 µM.

`O=C1/C(=C(\O)CS(=O)(=O)Nc2nc3ccc(Cl)cc3s2)S(=O)(=O)N=C2Sc3cc(Cl)ccc3N12` was tested, and the IC50 (P2Y purinoceptor 12 [1]) was 35 µM and the IC50 (Homo sapiens) was 64 µM.

With `CCOC(=O)c1ccc2c(c1)SC1=NS(=O)(=O)C(C(=O)CS(=O)(=O)Nc3nc4ccc(C(=O)OCC)cc4s3)=C(O)N12` the IC50 (P2Y purinoceptor 12 [1]) was 1.8 µM and the IC50 (Homo sapiens) was 0.8 µM.

`O=C1/C(=C(\O)CS(=O)(=O)Nc2nc3ccc([N+](=O)[O-])cc3s2)S(=O)(=O)N=C2Sc3cc([N+](=O)[O-])ccc3N12` gave an IC50 (P2Y purinoceptor 12 [1]) of 35 µM and an IC50 (Homo sapiens) of 50 µM.

For `COc1cccc2c1N1C(O)=CS(=O)(=O)N=C1S2`, the IC50 (P2Y purinoceptor 12 [1]) was 77 µM and the IC50 (Homo sapiens) was over 120 µM.

`Cc1ccc2c(c1)SC1=NS(=O)(=O)C(C(=O)CS(=O)(=O)Nc3nc4ccc(C)cc4s3)=C(O)N12` showed an IC50 (Homo sapiens) of 9.5 µM.

`O=C1/C(=C(\O)CS(=O)(=O)Nc2nc3ccc(F)cc3s2)S(=O)(=O)N=C2Sc3cc(F)ccc3N12` gave an IC50 (P2Y purinoceptor 12 [1]) of 37 µM and an IC50 (Homo sapiens) of over 120 µM.

`O=C1/C(=C(\O)CS(=O)(=O)Nc2nc3ccc(Oc4ccccc4)cc3s2)S(=O)(=O)N=C2Sc3cc(Oc4ccccc4)ccc3N12` was tested, and the IC50 (P2Y purinoceptor 12 [1]) was over 50 µM and the IC50 (Homo sapiens) was over 24 µM.

`O=C1/C(=C(\O)CS(=O)(=O)Nc2nc3ccccc3s2)S(=O)(=O)N=C2Sc3ccccc3N12` gave an IC50 (P2Y purinoceptor 12 [1]) of 21 µM and an IC50 (Homo sapiens) of 26 µM.

For `COc1ccc2c(c1)SC1=NS(=O)(=O)C(C(=O)CS(=O)(=O)Nc3nc4ccc(OC)cc4s3)=C(O)N12`, the IC50 (Homo sapiens) was 1.5 µM.

`O=S1(=O)C=C(O)N2C(=N1)Sc1cc(OC(F)(F)F)ccc12` gave an IC50 (P2Y purinoceptor 12 [1]) of over 120 µM and an IC50 (Homo sapiens) of over 50 µM.

`CCOc1ccc2c(c1)SC1=NS(=O)(=O)C(C(=O)CS(=O)(=O)Nc3nc4ccc(OCC)cc4s3)=C(O)N12` was tested, and the IC50 (P2Y purinoceptor 12 [2]) was 0.04 µM and the IC50 (Homo sapiens) was 0.18 µM.

Compound `CS(=O)(=O)c1ccc2c(c1)SC1=NS(=O)(=O)C(C(=O)CS(=O)(=O)Nc3nc4ccc(S(C)(=O)=O)cc4s3)=C(O)N12` has an IC50 (P2Y purinoceptor 12 [1]) of 1.1 µM and an IC50 (Homo sapiens) of 2.9 µM.
